Laboratory results taken from ChEMBL document CHEMBL3525899, “Identification of the cytochrome P450 and other enzymes involved in the in vitro oxidative metabolism of a novel antidepressant, Lu AA21004” (Drug Metab Dispos, 2012).
pKi: −log10 of the molar value.

Legend:
[1] = biological target: Cytochrome P450 2C9 (Homo sapiens, UniProt P11712); assay: Activity of human recombinant CYP2C9 expressed in microsomes isolated from human AHH-1 cells assessed as enzyme-mediated compound formation treated with Lu AA21004 at 8 to 50 uM after 120 mins by HPLC/MS-MS analysis in presence of NADPH regenerating system with NADP+; format: ADME, cell-free; settings: 2 h
Cytochrome P450 2C9, sequence (P11712 whole entry): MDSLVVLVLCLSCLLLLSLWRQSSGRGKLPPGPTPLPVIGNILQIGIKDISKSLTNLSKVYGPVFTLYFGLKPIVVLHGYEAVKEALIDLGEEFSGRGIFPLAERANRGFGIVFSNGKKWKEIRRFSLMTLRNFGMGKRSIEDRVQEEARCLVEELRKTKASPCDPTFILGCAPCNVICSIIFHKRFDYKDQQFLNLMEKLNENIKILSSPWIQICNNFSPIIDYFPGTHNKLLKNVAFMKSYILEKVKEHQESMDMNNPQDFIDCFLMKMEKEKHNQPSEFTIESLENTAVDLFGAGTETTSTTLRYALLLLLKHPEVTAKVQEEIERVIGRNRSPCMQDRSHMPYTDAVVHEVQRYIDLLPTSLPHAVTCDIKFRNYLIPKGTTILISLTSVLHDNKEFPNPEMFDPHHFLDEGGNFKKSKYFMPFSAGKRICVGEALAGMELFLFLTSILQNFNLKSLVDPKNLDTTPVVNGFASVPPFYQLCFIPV

[2] = biological target: Cytochrome P450 2C19 (Homo sapiens, UniProt P33261); assay: Activity of human recombinant CYP2C19 expressed in microsomes isolated from human AHH-1 cells assessed as enzyme-mediated compound formation treated with Lu AA21004 at 8 to 50 uM after 120 mins by HPLC/MS-MS analysis in presence of NADPH regenerating system with NADP+; format: ADME, cell-free; settings: 2 h
Cytochrome P450 2C19, sequence (P33261 whole entry): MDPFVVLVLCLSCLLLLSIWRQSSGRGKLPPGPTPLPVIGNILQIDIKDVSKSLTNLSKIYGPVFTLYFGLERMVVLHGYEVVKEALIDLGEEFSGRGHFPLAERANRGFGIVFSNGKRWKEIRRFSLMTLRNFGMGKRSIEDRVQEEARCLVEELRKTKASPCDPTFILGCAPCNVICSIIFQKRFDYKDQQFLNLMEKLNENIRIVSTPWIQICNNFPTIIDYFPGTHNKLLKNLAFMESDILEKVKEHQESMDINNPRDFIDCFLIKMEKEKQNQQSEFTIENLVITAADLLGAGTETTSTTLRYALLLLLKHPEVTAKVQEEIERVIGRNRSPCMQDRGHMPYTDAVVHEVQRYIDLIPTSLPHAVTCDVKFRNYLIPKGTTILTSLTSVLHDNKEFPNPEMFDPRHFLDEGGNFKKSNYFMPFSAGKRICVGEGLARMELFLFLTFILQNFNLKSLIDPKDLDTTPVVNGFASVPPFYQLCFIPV

[3] = test system: Liver microsome; assay: Drug level in phenotyped human liver microsomes treated with Lu AA21004 at 8 to 50 uM after 60 mins by HPLC/MS-MS analysis in presence of NADPH regenerating system with NADP+; format: ADME; settings: 1 h
[4] = test system: Liver microsome; assay: Drug level in pooled human liver microsomes treated with Lu AA21004 at 100 uM after 30 to 180 mins by HPLC/MS-MS analysis in presence of NADPH regenerating system with NADP+; format: ADME
[5] = biological target: T1, Cytochrome P450 2D6 (Homo sapiens, UniProt P10635); assay: Activity of human recombinant CYP2D6 expressed in microsomes isolated from human AHH-1 cells assessed as enzyme-mediated compound formation treated with Lu AA21004 at 8 to 50 uM after 120 mins by HPLC/MS-MS analysis in presence of NADPH regenerating system with NADP+; format: ADME, cell-free; settings: 2 h
T1 sequence (P10635 whole entry): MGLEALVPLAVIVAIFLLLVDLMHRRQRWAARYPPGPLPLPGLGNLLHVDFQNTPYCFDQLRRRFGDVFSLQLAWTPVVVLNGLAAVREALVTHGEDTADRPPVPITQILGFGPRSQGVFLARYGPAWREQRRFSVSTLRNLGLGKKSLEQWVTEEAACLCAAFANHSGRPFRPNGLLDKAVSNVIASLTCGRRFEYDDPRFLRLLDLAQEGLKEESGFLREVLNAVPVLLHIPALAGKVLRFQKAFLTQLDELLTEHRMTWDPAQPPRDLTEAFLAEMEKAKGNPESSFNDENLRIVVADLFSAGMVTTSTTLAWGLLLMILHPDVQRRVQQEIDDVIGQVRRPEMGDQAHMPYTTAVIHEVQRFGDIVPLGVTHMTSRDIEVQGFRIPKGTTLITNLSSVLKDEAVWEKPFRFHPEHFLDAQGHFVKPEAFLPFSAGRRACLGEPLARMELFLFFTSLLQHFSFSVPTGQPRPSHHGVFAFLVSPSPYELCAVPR

[6] = test system: Liver microsome; assay: Drug level in human liver microsomes treated with (3-methyl-4-(2-(piperazin-1-yl)phenylthio)phenyl)methanol at 50 uM after 20 mins by HPLC/MS-MS analysis in absence of NADPH regenerating system with NADP+; format: ADME
[7] = test system: Liver microsome; assay: Drug level in human liver microsomes treated with (3-methyl-4-(2-(piperazin-1-yl)phenylthio)phenyl)methanol at 50 uM after 20 mins by HPLC/MS-MS analysis in presence of NADPH regenerating system with NADP+; format: ADME
[8] = test system: Liver microsome; assay: Drug level in phenotyped human liver microsomes treated with (3-methyl-4-(2-(piperazin-1-yl)phenylthio)phenyl)methanol at 8 to 50 uM after 15 mins by HPLC/MS-MS analysis in presence of NADPH regenerating system with NADP+; format: ADME; settings: 0.25 h
[9] = Drug level in pooled human liver S9 fractions treated with (3-methyl-4-(2-(piperazin-1-yl)phenylthio)phenyl)methanol at 2 to 50 uM after 20 mins by HPLC/MS-MS analysis in presence of NADPH regenerating system with NAD+ and xanthine oxidase inhibitor allopurinol; format: ADME, subcellular, Liver S9 fraction; settings: s9, 20 min
[10] = test system: Liver; assay: Drug level in human liver S9 fractions treated with (3-methyl-4-(2-(piperazin-1-yl)phenylthio)phenyl)methanol at 8 to 50 uM after 20 mins by HPLC/MS-MS analysis in absence of NADPH regenerating system with NAD+; format: ADME, tissue-based; settings: s9, 20 min
[11] = Drug level in human liver S9 fractions treated with (3-methyl-4-(2-(piperazin-1-yl)phenylthio)phenyl)methanol at 8 to 50 uM after 20 mins by HPLC/MS-MS analysis in presence of NADPH regenerating system with NAD+; format: ADME, subcellular, Liver S9 fraction; settings: s9, 20 min
[12] = biological target: T1, Cytochrome P450 2D6; assay: Activity of human recombinant CYP2D6 expressed in microsomes isolated from human AHH-1 cells assessed as enzyme-mediated compound formation treated with (3-methyl-4-(2-(piperazin-1-yl)phenylthio)phenyl)methanol at 8 to 50 uM after 120 mins by HPLC/MS-MS analysis in presence of NADPH regenerating system with NADP+; format: ADME, cell-free; settings: 2 h
[13] = Drug metabolism in pooled human liver S9 fractions assessed as formation of 3-methyl-4-(2-(piperazin-1-yl)phenylthio)benzoic acid at 2 to 50 uM after 20 mins by HPLC/MS-MS analysis in presence of NADPH regenerating system with NAD+, aldehyde dehydrogenase inhibitor disulfiram, aldehyde oxidase inhibitor raloxifene and alcohol dehydrogenase inhibitor 4-methylpyrazole; format: ADME, subcellular, Liver S9 fraction; settings: s9, 20 min
[14] = test system: Liver microsome; assay: Drug metabolism in pooled human liver microsomes assessed as formation of 3-methyl-4-(2-(piperazin-1-yl)phenylthio)benzoic acid per mg of protein after 20 mins by Michaelis-Menten plot analysis in presence of NADPH regenerating system with NADP+; format: ADME
[15] = biological target: Liver microsome; assay: Uncompetitive substrate inhibition in pooled human liver microsomes assessed as formation of 3-methyl-4-(2-(piperazin-1-yl)phenylthio)benzoic acid after 20 mins by Michaelis-Menten plot analysis in presence of NADPH regenerating system with NADP+; format: ADME
[16] = test system: Liver microsome; assay: Intrinsic clearance in pooled human liver microsomes assessed as Vmax(app)/Km(app) for formation of 3-methyl-4-(2-(piperazin-1-yl)phenylthio)benzoic acid per mg of protein after 20 mins by Michaelis-Menten plot analysis in presence of NADPH regenerating system with NADP+; format: ADME
[17] = Drug metabolism in human liver S9 fractions assessed as formation of 3-methyl-4-(2-(piperazin-1-yl)phenylthio)benzoic acid at 8 to 50 uM after 20 mins by HPLC/MS-MS analysis in absence of NADPH regenerating system with NAD+; format: ADME, tissue-based; settings: s9, 20 min
[18] = Drug metabolism in pooled human liver S9 fractions assessed as formation of 3-methyl-4-(2-(piperazin-1-yl)phenylthio)benzoic acid at 2 to 50 uM after 20 mins by HPLC/MS-MS analysis in presence of NADPH regenerating system with NAD+ and xanthine oxidase inhibitor allopurinol; format: ADME, subcellular, Liver S9 fraction; settings: s9, 20 min
[19] = Drug metabolism in pooled human liver S9 fractions assessed as formation of 3-methyl-4-(2-(piperazin-1-yl)phenylthio)benzoic acid per mg of protein after 20 mins by Michaelis-Menten plot analysis in presence of NADPH regenerating system with NADP+; format: ADME, subcellular, Liver S9 fraction; settings: s9, 20 min
[20] = test system: Liver microsome; assay: Drug metabolism in human liver microsomes assessed as formation of 3-methyl-4-(2-(piperazin-1-yl)phenylthio)benzoic acid at 50 uM after 20 mins by HPLC/MS-MS analysis in absence of NADPH regenerating system with NADP+; format: ADME
[21] = Drug metabolism in human liver S9 fractions assessed as formation of 3-methyl-4-(2-(piperazin-1-yl)phenylthio)benzoic acid at 8 to 50 uM after 20 mins by HPLC/MS-MS analysis in presence of NADPH regenerating system with NAD+; format: ADME, subcellular, Liver S9 fraction; settings: s9, 20 min
[22] = test system: Liver microsome; assay: Drug metabolism in pooled human liver microsomes assessed as formation of 3-methyl-4-(2-(piperazin-1-yl)phenylthio)benzoic acid after 20 mins by Michaelis-Menten plot analysis in presence of NADPH regenerating system with NADP+; format: ADME; settings: read-out: Km(app)
[23] = test system: Liver microsome; assay: Drug metabolism in human liver microsomes assessed as formation of 3-methyl-4-(2-(piperazin-1-yl)phenylthio)benzoic acid at 50 uM after 20 mins by HPLC/MS-MS analysis in presence of NADPH regenerating system with NADP+; format: ADME
[24] = Drug metabolism in pooled human liver S9 fractions assessed as formation of 3-methyl-4-(2-(piperazin-1-yl)phenylthio)benzoic acid after 20 mins by Michaelis-Menten plot analysis in presence of NADPH regenerating system with NADP+; format: ADME, subcellular, Liver S9 fraction; settings: s9, 20 min, read-out: Km(app)
[25] = test system: Liver microsome; assay: Drug metabolism in phenotyped human liver microsomes assessed as formation of 3-methyl-4-(2-(piperazin-1-yl)phenylthio)benzoic acid at 8 to 50 uM after 15 mins by HPLC/MS-MS analysis in presence of NADPH regenerating system with NADP+; format: ADME; settings: 0.25 h
[26] = Intrinsic clearance in pooled human liver S9 fractions assessed as Vmax(app)/Km(app) for formation of 3-methyl-4-(2-(piperazin-1-yl)phenylthio)benzoic acid per mg of protein after 20 mins by Michaelis-Menten plot analysis in presence of NADPH regenerating system with NADP+; format: ADME, subcellular, Liver S9 fraction; settings: s9, 20 min
[27] = biological target: T2, Cytochrome P450 2A6 (Homo sapiens, UniProt P11509); assay: Activity of human recombinant CYP2A6 expressed in microsomes isolated from human AHH-1 cells assessed as enzyme-mediated compound formation treated with Lu AA21004 at 8 to 50 uM after 120 mins by HPLC/MS-MS analysis in presence of NADPH regenerating system with NADP+; format: ADME, cell-free; settings: 2 h
T2 sequence (P11509 whole entry): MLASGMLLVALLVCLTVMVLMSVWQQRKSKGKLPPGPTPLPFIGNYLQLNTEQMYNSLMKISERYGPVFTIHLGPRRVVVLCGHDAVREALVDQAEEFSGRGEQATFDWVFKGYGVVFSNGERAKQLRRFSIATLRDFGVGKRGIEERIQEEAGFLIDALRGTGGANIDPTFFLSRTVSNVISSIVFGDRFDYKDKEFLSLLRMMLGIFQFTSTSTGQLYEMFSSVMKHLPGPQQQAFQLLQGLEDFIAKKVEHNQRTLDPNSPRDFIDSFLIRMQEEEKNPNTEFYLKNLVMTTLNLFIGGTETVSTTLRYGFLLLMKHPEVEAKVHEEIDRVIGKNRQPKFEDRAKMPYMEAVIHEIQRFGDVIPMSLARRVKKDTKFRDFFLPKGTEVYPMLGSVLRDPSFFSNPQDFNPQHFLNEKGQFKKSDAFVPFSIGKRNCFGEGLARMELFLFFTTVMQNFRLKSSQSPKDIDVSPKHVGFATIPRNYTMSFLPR

[28] = biological target: T3, Cytochrome P450 2C8 (Homo sapiens, UniProt P10632); assay: Activity of human recombinant CYP2C8 expressed in microsomes isolated from human AHH-1 cells assessed as enzyme-mediated compound formation treated with Lu AA21004 at 8 to 50 uM after 120 mins by HPLC/MS-MS analysis in presence of NADPH regenerating system with NADP+; format: ADME, cell-free; settings: 2 h
T3 sequence (P10632 whole entry): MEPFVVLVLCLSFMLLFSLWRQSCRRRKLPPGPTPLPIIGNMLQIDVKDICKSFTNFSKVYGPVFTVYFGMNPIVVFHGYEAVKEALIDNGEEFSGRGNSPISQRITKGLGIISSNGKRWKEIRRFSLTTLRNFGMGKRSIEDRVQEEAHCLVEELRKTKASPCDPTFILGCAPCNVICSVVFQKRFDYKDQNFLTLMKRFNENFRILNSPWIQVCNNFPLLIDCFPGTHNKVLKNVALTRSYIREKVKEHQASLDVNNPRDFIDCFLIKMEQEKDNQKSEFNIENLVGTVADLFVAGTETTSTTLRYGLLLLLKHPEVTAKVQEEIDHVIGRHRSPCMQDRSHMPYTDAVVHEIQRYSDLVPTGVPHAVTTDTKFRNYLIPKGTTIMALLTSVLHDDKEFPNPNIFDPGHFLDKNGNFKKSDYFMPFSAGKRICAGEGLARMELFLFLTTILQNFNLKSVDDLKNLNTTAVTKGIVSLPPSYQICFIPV

[29] = biological target: Cytochrome P450 3A4 (Homo sapiens, UniProt P08684); assay: Activity of human recombinant CYP3A4 expressed in microsomes isolated from human AHH-1 cells assessed as enzyme-mediated compound formation treated with Lu AA21004 at 8 to 50 uM after 120 mins by HPLC/MS-MS analysis in presence of NADPH regenerating system with NADP+; format: ADME, cell-free; settings: 2 h
Cytochrome P450 3A4, sequence (P08684 whole entry): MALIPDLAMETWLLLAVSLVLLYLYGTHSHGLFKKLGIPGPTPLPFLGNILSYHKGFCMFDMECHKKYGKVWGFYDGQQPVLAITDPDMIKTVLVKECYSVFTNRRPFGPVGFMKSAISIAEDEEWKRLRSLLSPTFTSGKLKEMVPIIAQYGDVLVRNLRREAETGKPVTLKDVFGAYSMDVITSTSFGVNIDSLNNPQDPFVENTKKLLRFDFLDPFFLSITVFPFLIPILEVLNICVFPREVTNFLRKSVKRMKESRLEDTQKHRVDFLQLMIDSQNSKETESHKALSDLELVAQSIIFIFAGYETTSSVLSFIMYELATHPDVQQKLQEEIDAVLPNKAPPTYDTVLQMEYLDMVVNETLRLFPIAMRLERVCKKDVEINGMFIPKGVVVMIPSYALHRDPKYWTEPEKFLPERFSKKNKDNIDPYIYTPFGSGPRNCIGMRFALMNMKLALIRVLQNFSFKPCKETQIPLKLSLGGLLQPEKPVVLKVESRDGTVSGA

Cc1ccc(Sc2cc([O-])ccc2N2CCNCC2)c(C)c1.[Na+]
Drug metabolism [1]: metabolite_detected
Drug metabolism [2]: metabolite_detected
Drug metabolism [3]: metabolite_detected
Drug metabolism [4]: metabolite_detected
Drug metabolism [5]: metabolite_detected

Cc1cc(C(=O)O)ccc1Sc1ccccc1N1CCNCC1
Drug metabolism [6]: metabolite_detected
Drug metabolism [7]: metabolite_detected
Drug metabolism [8]: metabolite_detected
Drug metabolism [3]: metabolite_detected
Drug metabolism [9]: metabolite_detected
Drug metabolism [4]: metabolite_detected
Drug metabolism [5]: metabolite_detected
Drug metabolism [10]: metabolite_detected
Drug metabolism [11]: metabolite_detected
Drug metabolism [12]: metabolite_detected

Cc1cc(CO)ccc1Sc1ccccc1N1CCNCC1
Drug metabolism [13]: metabolite_not_detected
Vmax(app) [14]: 59 pmol/min
pKi [15]: 3.56
Vmax/Km [16]: 0.621 µL/min
Drug metabolism [1]: metabolite_detected
Drug metabolism [17]: metabolite_detected
Drug metabolism [2]: metabolite_detected
Drug metabolism [18]: metabolite_detected
Vmax(app) [19]: 1567 pmol/min
Drug metabolism [3]: metabolite_detected
Drug metabolism [4]: metabolite_detected
Drug metabolism [20]: metabolite_detected
Drug metabolism [5]: metabolite_detected
Drug metabolism [21]: metabolite_detected
Km [22]: 95 µM
Drug metabolism [23]: metabolite_detected
Km [24]: 1.7 µM
Drug metabolism [25]: metabolite_detected
Vmax/Km [26]: 922 µL/min

Cc1ccc([S+]([O-])c2ccccc2N2CCNCC2)c(C)c1.O=C(O)/C=C/C(=O)O (centres undefined)
Drug metabolism [3]: metabolite_detected
Drug metabolism [27]: metabolite_detected
Drug metabolism [4]: metabolite_detected
Drug metabolism [28]: metabolite_detected
Drug metabolism [29]: metabolite_detected
